In PubChem BioAssay (NCI):
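These data come from cells grown in 96-well plates and exposed to compound for 48 hours at five concentrations. TGI denotes the concentration required for complete inhibition of growth.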

What was measured:
Assay in all cases: growth of human tumour cells (NCI), 48 h
KM12 colon = tested on: KM12 colon
HOP-62 NSCLC = tested on: HOP-62 NSCLC
SN12C renal = tested on: SN12C renal
SK-MEL-28 melanoma = tested on: SK-MEL-28 melanoma
HT29 colon = tested on: HT29 colon
SNB-75 CNS = tested on: SNB-75 CNS
NCI/ADR-RES ovarian = tested on: NCI/ADR-RES ovarian
CAKI-1 renal = tested on: CAKI-1 renal
NCI-H23 lung = tested on: NCI-H23 lung
NCI-H522 lung = tested on: NCI-H522 lung
UACC-257 melanoma = tested on: UACC-257 melanoma
HL-60(TB) leukemia = tested on: HL-60(TB) leukemia
A549 NSCLC = tested on: A549 NSCLC
NCI-H460 lung = tested on: NCI-H460 lung
BT-549 breast = tested on: BT-549 breast
OVCAR-3 ovarian = tested on: OVCAR-3 ovarian
LOX IMVI melanoma = tested on: LOX IMVI melanoma
OVCAR-4 ovarian = tested on: OVCAR-4 ovarian
SNB-19 CNS = tested on: SNB-19 CNS
SR leukemia = tested on: SR leukemia
HCC-2998 colon = tested on: HCC-2998 colon
EKVX NSCLC = tested on: EKVX NSCLC
SW-620 colon = tested on: SW-620 colon
SK-MEL-5 melanoma = tested on: SK-MEL-5 melanoma
CCRF-CEM leukemia = tested on: CCRF-CEM leukemia
786-0 renal = tested on: 786-0 renal
HCT-116 colon = tested on: HCT-116 colon
UO-31 renal = tested on: UO-31 renal
SF-268 CNS = tested on: SF-268 CNS
IGROV1 ovarian = tested on: IGROV1 ovarian
MALME-3M melanoma = tested on: MALME-3M melanoma
U251 CNS = tested on: U251 CNS
RXF 393 renal = tested on: RXF 393 renal
SF-295 CNS = tested on: SF-295 CNS
MDA-MB-231 breast = tested on: MDA-MB-231 breast
MDA-MB-435 = tested on: MDA-MB-435
TK-10 renal = tested on: TK-10 renal
A498 renal = tested on: A498 renal
MCF7 breast = tested on: MCF7 breast
OVCAR-8 ovarian = tested on: OVCAR-8 ovarian
SK-OV-3 ovarian = tested on: SK-OV-3 ovarian
DU-145 prostate = tested on: DU-145 prostate
PC-3 prostate = tested on: PC-3 prostate
RPMI-8226 leukemia = tested on: RPMI-8226 leukemia
SF-539 CNS = tested on: SF-539 CNS
K-562 leukemia = tested on: K-562 leukemia
T-47D breast = tested on: T-47D breast
OVCAR-5 ovarian = tested on: OVCAR-5 ovarian
HCT-15 colon = tested on: HCT-15 colon
HS 578T breast = tested on: HS 578T breast
NCI-H226 lung = tested on: NCI-H226 lung
COLO 205 colon = tested on: COLO 205 colon
SK-MEL-2 melanoma = tested on: SK-MEL-2 melanoma
M14 melanoma = tested on: M14 melanoma
UACC-62 melanoma = tested on: UACC-62 melanoma
ACHN renal = tested on: ACHN renal

Measured: TGI

COC(=O)C1=C(OC(=O)/C(=C/c2ccccc2)c2ccccc2)C(C(=O)OC)[C@@]2(O)[C@@H](C(=O)OC)[C@H](C)C[C@@H]1[C@@H]2C(=O)OC (stereo partly specified)
> 100 µM: KM12 colon | HOP-62 NSCLC | SN12C renal | SK-MEL-28 melanoma | HT29 colon | SNB-75 CNS | NCI/ADR-RES ovarian | CAKI-1 renal | NCI-H23 lung | NCI-H522 lung | UACC-257 melanoma | HL-60(TB) leukemia | A549 NSCLC | NCI-H460 lung | BT-549 breast | OVCAR-3 ovarian | LOX IMVI melanoma | OVCAR-4 ovarian | SNB-19 CNS | SR leukemia | HCC-2998 colon | EKVX NSCLC | SW-620 colon | SK-MEL-5 melanoma | CCRF-CEM leukemia | 786-0 renal | HCT-116 colon | UO-31 renal | SF-268 CNS | IGROV1 ovarian | MALME-3M melanoma | U251 CNS | RXF 393 renal | SF-295 CNS | MDA-MB-231 breast | MDA-MB-435 | TK-10 renal | A498 renal | MCF7 breast | OVCAR-8 ovarian | SK-OV-3 ovarian | DU-145 prostate | PC-3 prostate | RPMI-8226 leukemia | SF-539 CNS | K-562 leukemia | T-47D breast | OVCAR-5 ovarian | HCT-15 colon | HS 578T breast | NCI-H226 lung | COLO 205 colon | SK-MEL-2 melanoma | M14 melanoma | UACC-62 melanoma | ACHN renal
